{
  "source": "ChEMBL document CHEMBL4840351",
  "about": "(J Med Chem, 2021)",
  "key": {"TMD8 [1]": {"test_system": "TMD8", "assay": "Induction of cell cycle arrest in human TMD8 cells assessed as accumulation of cells at G2 phase at 300 nM incubated for 48 hrs by PI staining based flow cytometric analysis (reference value: 4.92 %)", "format": "functional"}, "Cytochrome P450 3A4": {"biological_target": "Cytochrome P450 3A4 (Homo sapiens, UniProt P08684)", "sequence (P08684 whole entry)": "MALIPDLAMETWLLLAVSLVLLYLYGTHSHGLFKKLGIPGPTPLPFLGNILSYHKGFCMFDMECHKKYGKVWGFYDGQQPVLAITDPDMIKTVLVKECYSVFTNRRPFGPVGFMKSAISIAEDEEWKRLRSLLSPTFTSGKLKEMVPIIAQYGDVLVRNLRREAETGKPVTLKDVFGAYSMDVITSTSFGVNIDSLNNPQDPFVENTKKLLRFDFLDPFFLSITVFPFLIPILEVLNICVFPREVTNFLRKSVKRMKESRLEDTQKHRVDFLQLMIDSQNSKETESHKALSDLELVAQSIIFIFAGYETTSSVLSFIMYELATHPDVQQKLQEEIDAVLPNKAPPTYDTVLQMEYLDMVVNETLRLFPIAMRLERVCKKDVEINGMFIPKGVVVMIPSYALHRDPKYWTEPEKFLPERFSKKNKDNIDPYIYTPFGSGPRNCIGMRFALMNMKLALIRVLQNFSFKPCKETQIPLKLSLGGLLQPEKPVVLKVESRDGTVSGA", "assay": "Inhibition of CYP3A4T in human liver microsomes using midazolam as substrate incubated for 10 mins in presence of NADPH by LC-MS/MS analysis", "format": "ADME"}, "[2]": {"biological_target": "T1, Tyrosine-protein kinase BTK (Homo sapiens, UniProt Q06187)", "T1 sequence (Q06187 whole entry)": "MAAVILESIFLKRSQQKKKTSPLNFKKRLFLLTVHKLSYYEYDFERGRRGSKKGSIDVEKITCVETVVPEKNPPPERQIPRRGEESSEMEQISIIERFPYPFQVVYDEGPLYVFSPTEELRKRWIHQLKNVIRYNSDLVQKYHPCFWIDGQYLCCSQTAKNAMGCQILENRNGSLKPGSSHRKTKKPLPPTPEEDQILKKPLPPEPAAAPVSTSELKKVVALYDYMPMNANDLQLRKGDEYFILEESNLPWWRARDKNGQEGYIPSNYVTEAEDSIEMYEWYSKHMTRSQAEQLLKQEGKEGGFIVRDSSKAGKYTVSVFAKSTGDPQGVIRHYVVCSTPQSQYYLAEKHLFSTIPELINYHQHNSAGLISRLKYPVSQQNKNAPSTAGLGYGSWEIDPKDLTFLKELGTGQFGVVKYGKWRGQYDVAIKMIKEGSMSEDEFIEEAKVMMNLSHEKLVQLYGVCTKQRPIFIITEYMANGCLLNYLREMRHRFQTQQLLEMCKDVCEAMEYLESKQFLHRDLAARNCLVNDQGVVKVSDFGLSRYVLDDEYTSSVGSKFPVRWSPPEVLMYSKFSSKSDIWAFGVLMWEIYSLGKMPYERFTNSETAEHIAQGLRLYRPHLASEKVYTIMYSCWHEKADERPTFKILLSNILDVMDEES", "assay": "Inhibition of BTK in human TMD8 cells assessed as reduction in BTK autophosphorylation at Tyr 223 residue after 4 hrs by Western blot analysis", "format": "cell-based"}, "TMD8 [3]": {"test_system": "TMD8", "assay": "Antitumor activity against human TMD8 cells xenografted in CB-17 SCID nude mouse assessed as tumor growth inhibition at 3.75 mg/kg, po bid administered for 21 days", "format": "functional", "conditions": "504 h, time 21 day, read-out: TGI; call rule not given here"}, "[4]": {"assay": "Toxicity in SFP CD-1 mouse assessed as pathological change in visceral organs at 10 to 1280 mg/kg, po administered for 7 days by H and E staining based assay", "format": "organism-based", "conditions": "in vivo, 168 h, dose 10-1280 mg/kg, time 7 day"}, "[5]": {"assay": "AUC in Sprague-Dawley rat at 5 mg/kg, iv measured upto 24 hrs by LC/MS/MS analysis", "format": "ADME, organism-based", "parameters": "route intravenous, dose 5 mg/kg, time <=24", "conditions": "in vivo"}, "TMD8 [6]": {"test_system": "TMD8", "assay": "Induction of cell cycle arrest in human TMD8 cells assessed as accumulation of cells at G2 phase at 30 nM incubated for 48 hrs by PI staining based flow cytometric analysis (reference value: 4.92 %)", "format": "functional"}, "Cytochrome P450 2C19": {"biological_target": "Cytochrome P450 2C19 (Homo sapiens, UniProt P33261)", "sequence (P33261 whole entry)": "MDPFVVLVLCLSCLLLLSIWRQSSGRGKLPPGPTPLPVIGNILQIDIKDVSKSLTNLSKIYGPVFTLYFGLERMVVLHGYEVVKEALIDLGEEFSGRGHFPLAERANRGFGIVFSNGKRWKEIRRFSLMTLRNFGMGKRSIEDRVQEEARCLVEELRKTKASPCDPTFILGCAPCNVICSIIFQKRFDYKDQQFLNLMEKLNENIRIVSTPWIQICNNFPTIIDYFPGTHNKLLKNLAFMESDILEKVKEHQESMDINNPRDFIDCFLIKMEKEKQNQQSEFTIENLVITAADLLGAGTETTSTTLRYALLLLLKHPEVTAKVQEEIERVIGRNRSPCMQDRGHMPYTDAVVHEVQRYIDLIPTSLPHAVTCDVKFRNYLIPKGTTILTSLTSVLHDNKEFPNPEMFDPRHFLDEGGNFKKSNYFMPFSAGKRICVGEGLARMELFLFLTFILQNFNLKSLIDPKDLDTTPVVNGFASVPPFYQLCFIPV", "assay": "Inhibition of CYP2C19 in human liver microsomes using S-mephenytoin as substrate incubated for 10 mins in presence of NADPH by LC-MS/MS analysis", "format": "ADME"}, "[7]": {"biological_target": "Epidermal growth factor receptor (Homo sapiens, UniProt P00533)", "sequence (P00533 whole entry, the tested form may be a part)": "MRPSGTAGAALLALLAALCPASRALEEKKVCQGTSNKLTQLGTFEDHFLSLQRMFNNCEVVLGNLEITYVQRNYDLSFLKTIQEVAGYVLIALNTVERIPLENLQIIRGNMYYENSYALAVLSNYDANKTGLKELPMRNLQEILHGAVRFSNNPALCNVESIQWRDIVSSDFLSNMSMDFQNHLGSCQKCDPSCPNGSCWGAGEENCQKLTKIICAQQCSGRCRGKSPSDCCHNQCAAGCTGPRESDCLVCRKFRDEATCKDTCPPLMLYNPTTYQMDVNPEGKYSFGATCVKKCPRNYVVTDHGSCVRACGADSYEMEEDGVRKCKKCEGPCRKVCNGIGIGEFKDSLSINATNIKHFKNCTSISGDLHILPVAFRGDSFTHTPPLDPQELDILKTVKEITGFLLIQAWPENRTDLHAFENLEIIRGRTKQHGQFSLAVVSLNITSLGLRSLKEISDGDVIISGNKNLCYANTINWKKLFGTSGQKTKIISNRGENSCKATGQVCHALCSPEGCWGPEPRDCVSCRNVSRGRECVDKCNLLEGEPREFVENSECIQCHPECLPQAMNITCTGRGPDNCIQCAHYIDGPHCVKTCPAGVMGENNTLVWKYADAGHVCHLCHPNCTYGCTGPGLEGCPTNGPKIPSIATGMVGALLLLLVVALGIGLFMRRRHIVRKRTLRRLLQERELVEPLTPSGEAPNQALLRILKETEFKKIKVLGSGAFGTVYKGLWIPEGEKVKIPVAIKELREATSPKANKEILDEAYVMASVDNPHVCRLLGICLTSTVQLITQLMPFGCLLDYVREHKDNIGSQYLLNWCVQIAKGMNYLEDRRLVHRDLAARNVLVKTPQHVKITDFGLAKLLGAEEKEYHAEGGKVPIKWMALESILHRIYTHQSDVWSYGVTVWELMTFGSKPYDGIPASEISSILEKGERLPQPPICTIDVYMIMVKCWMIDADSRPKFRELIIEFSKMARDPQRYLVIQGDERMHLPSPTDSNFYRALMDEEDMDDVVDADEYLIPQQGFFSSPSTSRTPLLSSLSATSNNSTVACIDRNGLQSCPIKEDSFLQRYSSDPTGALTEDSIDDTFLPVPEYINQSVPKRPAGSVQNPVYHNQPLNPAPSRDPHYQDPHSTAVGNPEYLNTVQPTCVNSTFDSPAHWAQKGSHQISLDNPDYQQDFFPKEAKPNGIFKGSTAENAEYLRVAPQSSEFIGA", "assay": "Inhibition of N-terminal DYKDDDD-tagged EGFR (669 to 1210 residues) (unknown origin) expressed in Sf21 insect cells using NH2-ETVYSEVRK-biotin as substrate preincubated for 1 hr followed by ATP addition and measured after 2 hrs by ELISA"}, "[8]": {"biological_target": "T2, Tyrosine-protein kinase ITK/TSK (Homo sapiens, UniProt Q08881)", "T2 sequence (Q08881 whole entry)": "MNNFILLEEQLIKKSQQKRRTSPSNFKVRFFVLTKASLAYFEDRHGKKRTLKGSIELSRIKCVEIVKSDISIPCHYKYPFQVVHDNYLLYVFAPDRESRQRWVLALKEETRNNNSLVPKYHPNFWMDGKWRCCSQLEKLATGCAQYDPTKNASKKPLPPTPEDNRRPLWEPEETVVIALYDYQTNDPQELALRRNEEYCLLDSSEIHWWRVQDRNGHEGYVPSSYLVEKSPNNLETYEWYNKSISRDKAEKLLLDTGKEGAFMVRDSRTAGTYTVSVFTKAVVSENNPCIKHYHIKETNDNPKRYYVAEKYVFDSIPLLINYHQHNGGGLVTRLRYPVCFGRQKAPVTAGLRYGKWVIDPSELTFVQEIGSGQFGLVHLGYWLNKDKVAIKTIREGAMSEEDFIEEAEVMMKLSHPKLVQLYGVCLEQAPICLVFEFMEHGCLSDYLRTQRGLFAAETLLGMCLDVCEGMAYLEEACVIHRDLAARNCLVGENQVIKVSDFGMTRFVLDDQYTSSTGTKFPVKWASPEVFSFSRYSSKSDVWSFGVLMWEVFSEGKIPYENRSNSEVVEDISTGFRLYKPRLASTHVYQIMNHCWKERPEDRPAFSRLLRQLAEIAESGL", "assay": "Inhibition of full-length N-terminal GST-tagged ITK (2 to 620 residues) (unknown origin) expressed in Sf21 insect cells using NH2-ETVYSEVRK-biotin as substrate preincubated for 1 hr followed by ATP addition and measured after 2 hrs by ELISA"}, "[9]": {"assay": "Half life in Sprague-Dawley rat at 5 mg/kg, iv measured upto 24 hrs by LC/MS/MS analysis", "format": "ADME, organism-based", "conditions": "in vivo"}, "TMD8 [10]": {"test_system": "TMD8", "assay": "Induction of cell cycle arrest in human TMD8 cells assessed as accumulation of cells at S phase at 3 nM incubated for 48 hrs by PI staining based flow cytometric analysis (reference value: 37.42 %)", "format": "functional"}, "[11]": {"assay": "Clearance in Sprague-Dawley rat at 5 mg/kg, iv measured upto 24 hrs by LC/MS/MS analysis", "format": "ADME, organism-based", "conditions": "in vivo"}, "MOLM-13": {"test_system": "MOLM-13", "assay": "Antiproliferative activity against human MOLM-13 cells assessed as reduction in cell viability incubated for 72 hrs by celltiter-glo assay", "conditions": "MOLM-13, 72 h"}, "[12]": {"biological_target": "Tyrosine-protein kinase Lck (Homo sapiens, UniProt P06239)", "sequence (P06239 whole entry)": "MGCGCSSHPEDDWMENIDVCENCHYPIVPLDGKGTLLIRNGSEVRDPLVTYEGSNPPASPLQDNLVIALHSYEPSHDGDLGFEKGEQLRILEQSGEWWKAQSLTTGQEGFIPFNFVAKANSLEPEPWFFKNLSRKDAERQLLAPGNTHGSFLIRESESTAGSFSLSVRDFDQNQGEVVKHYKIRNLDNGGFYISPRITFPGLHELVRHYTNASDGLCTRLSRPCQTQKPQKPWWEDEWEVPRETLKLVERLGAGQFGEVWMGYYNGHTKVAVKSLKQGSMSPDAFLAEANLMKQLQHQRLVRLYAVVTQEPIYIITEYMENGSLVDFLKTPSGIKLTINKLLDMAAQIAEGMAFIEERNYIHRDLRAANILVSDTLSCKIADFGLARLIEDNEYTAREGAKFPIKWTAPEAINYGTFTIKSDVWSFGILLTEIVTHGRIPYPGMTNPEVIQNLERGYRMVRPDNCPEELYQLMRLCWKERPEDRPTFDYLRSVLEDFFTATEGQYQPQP", "assay": "Inhibition of LCK (unknown origin)"}, "TMD8 [13]": {"test_system": "TMD8", "assay": "Antitumor activity against human TMD8 cells xenografted in CB-17 SCID nude mouse assessed as tumor growth inhibition at 7.5 mg/kg, po bid administered for 21 days", "format": "functional", "conditions": "504 h, time 21 day, read-out: TGI"}, "TMD8 [14]": {"test_system": "TMD8", "assay": "Induction of cell cycle arrest in human TMD8 cells assessed as accumulation of cells at S phase at 30 nM incubated for 48 hrs by PI staining based flow cytometric analysis (reference value: 37.42 %)", "format": "functional"}, "[15]": {"assay": "Toxicity in SFP CD-1 mouse assessed as change in body weight at 10 to 1280 mg/kg, po administered for 7 days", "format": "organism-based", "conditions": "in vivo, 168 h, dose 10-1280 mg/kg, time 7 day"}, "Rec1": {"test_system": "Rec1", "assay": "Antiproliferative activity against human REC-1 cells assessed as reduction in cell viability incubated for 72 hrs by celltiter-glo assay", "conditions": "Rec1, 72 h"}, "TMD8 [16]": {"test_system": "TMD8", "assay": "Induction of cell cycle arrest in human TMD8 cells assessed as accumulation of cells at S phase at 300 nM incubated for 48 hrs by PI staining based flow cytometric analysis (reference value: 37.42 %)", "format": "functional"}, "[17]": {"biological_target": "Tyrosine-protein kinase BTK (Homo sapiens, UniProt Q06187, C481S)", "sequence (Q06187 2-659 C481S limits assumed)": "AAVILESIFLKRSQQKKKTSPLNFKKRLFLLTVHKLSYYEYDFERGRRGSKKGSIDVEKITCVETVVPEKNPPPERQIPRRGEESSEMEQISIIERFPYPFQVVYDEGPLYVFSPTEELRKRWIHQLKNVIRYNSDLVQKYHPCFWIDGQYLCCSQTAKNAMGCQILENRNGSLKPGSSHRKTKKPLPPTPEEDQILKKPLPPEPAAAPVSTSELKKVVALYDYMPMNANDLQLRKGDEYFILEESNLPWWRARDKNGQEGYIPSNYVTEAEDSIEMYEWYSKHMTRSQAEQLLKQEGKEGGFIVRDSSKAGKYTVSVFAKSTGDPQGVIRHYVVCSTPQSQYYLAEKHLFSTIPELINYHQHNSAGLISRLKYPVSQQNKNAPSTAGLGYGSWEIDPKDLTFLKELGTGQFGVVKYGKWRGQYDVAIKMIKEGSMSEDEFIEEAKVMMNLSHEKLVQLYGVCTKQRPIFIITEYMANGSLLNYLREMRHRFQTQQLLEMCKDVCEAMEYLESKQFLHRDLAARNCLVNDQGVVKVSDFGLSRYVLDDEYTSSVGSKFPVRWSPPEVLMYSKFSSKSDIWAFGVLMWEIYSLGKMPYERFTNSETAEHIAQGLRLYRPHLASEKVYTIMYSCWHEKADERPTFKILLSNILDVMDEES", "assay": "Inhibition of BTK C481S mutant (unknown origin)"}, "[18]": {"biological_target": "T1, Tyrosine-protein kinase BTK", "assay": "Inhibition of full-length N-terminal GST tagged BTK (2 to 659 residues) (unknown origin) expressed in Sf21 insect cells using NH2-ETVYSEVRK-biotin as substrate preincubated for 1 hr followed by ATP addition and measured after 2 hrs by ELISA"}, "[19]": {"assay": "Cmax in CB-17 SCID mouse xenografted with human TMD8 cells at 7.5 mg/kg, po bid administered for 21 days", "format": "ADME, organism-based", "parameters": "route oral, dose 7.5 mg/kg, time 21 day", "conditions": "in vivo"}, "[20]": {"assay": "AUC in Sprague-Dawley rat at 5 mg/kg, po measured upto 24 hrs by LC/MS/MS analysis", "format": "ADME, organism-based", "parameters": "route oral, dose 5 mg/kg, time <=24", "conditions": "in vivo"}, "TMD8 [21]": {"test_system": "TMD8", "assay": "Induction of apoptosis in human TMD8 cells at 30 nM incubated for 72 hrs by Annexin V-FITC/PI staining based flow cytometric analysis (reference value: 13.4 %)", "format": "functional"}, "TMD8 [22]": {"test_system": "TMD8", "assay": "Induction of cell cycle arrest in human TMD8 cells assessed as accumulation of cells at G1 phase at 3 nM incubated for 48 hrs by PI staining based flow cytometric analysis (reference value: 57.66 %)", "format": "functional"}, "[23]": {"assay": "Volume of distribution in Sprague-Dawley rat at 5 mg/kg, iv measured upto 24 hrs by LC/MS/MS analysis", "format": "ADME, organism-based", "conditions": "in vivo"}, "[24]": {"biological_target": "Tyrosine-protein kinase Lyn (Homo sapiens, UniProt P07948)", "sequence (P07948 whole entry)": "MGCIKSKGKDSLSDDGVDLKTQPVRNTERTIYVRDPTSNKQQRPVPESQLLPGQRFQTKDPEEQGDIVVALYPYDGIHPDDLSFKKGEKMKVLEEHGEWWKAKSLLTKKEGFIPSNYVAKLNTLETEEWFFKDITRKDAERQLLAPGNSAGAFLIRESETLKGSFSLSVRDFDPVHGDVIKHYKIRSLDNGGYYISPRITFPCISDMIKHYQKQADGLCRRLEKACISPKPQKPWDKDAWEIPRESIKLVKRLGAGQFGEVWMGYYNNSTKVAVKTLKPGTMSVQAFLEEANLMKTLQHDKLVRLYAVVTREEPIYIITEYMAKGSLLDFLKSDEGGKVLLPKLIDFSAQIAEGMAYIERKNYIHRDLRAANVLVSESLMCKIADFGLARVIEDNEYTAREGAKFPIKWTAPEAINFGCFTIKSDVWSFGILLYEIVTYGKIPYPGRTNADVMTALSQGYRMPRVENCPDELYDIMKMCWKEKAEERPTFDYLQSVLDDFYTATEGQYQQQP", "assay": "Inhibition of LYN (unknown origin)"}},
  "data": [
    {"smiles": "C=CC(=O)N1CCCC[C@H]1c1nc(-c2ccc(C(=O)Nc3cc(C(F)(F)F)ccn3)cc2)c(C(N)=O)n1N", "values": [
      {"measurement": "Activity", "setting": "TMD8 [1]", "result": 3.79, "unit": "%"},
      {"measurement": "IC50", "setting": "Cytochrome P450 3A4", "result": "> 10", "unit": "µM"},
      {"measurement": "IC50", "setting": "[2]", "result": 8.96, "unit": "nM"},
      {"measurement": "inhibition in vivo at 3.75 mg/kg", "setting": "TMD8 [3]", "result": 81, "unit": "%"},
      {"measurement": "Activity", "setting": "[4]", "result": "Non-Toxic"},
      {"measurement": "AUC at 24 h", "setting": "[5]", "result": 6360, "unit": "ng·h/mL"},
      {"measurement": "Activity", "setting": "TMD8 [6]", "result": 4.69, "unit": "%"},
      {"measurement": "IC50", "setting": "Cytochrome P450 2C19", "result": "> 10", "unit": "µM"},
      {"measurement": "IC50", "setting": "[7]", "result": 433, "unit": "nM"},
      {"measurement": "IC50", "setting": "[8]", "result": 847, "unit": "nM"},
      {"measurement": "half-life", "setting": "[9]", "result": 79.2, "unit": "min"},
      {"measurement": "Activity", "setting": "TMD8 [10]", "result": 37.86, "unit": "%"},
      {"measurement": "clearance", "setting": "[11]", "result": 13.4, "unit": "mL/min/kg"},
      {"measurement": "IC50", "setting": "MOLM-13", "result": 3.7, "unit": "µM"},
      {"measurement": "inhibition (INH)", "setting": "[12]", "result": "Not Active"},
      {"measurement": "inhibition in vivo at 7.5 mg/kg", "setting": "TMD8 [13]", "result": 96, "unit": "%"},
      {"measurement": "Activity", "setting": "TMD8 [14]", "result": 10.95, "unit": "%"},
      {"measurement": "Activity", "setting": "[15]", "result": "Non-Toxic"},
      {"measurement": "IC50", "setting": "Rec1", "result": 35, "unit": "nM"},
      {"measurement": "Activity", "setting": "TMD8 [16]", "result": 2.37, "unit": "%"},
      {"measurement": "IC50", "setting": "[17]", "result": "> 10", "unit": "µM"},
      {"measurement": "IC50", "setting": "[18]", "result": 2.7, "unit": "nM"},
      {"measurement": "Cmax", "setting": "[19]", "result": 1000, "unit": "ng/mL"},
      {"measurement": "AUC at 24 h", "setting": "[20]", "result": 2000, "unit": "ng·h/mL"},
      {"measurement": "Activity", "setting": "TMD8 [21]", "result": 19.2, "unit": "%"},
      {"measurement": "Activity", "setting": "TMD8 [22]", "result": 54.21, "unit": "%"},
      {"measurement": "Vd", "setting": "[23]", "result": 1.5, "unit": "L/kg"},
      {"measurement": "inhibition (INH)", "setting": "[24]", "result": "Not Active"}
    ]}
  ]
}
